Laboratory results reported in patent US20230146455A1, “TREATMENT OF INFLAMMATORY DISEASES WITH PEPTIDES AND PHARMACEUTICAL COMPOSITIONS” (Yuyu Pharma, Inc., priority 2020, published 2023).
“And” between values parts separate entries of the source, which are not always exact repeats. Identical values can stand only once. Where a SMILES comes first, the peptide text is derived from it. [ ]: non-standard residue; d: D form. Hyp = O=C(O)[C@@H]1C[C@@H](O)CN1

Tests used:
CCL4/MIP-1 beta = experiment: Example 8 main study Luminex, LPS hPBMCs: CCL4/MIP-1 beta; assay type: cell-based, human
Description: (§1) Human PBMCs were pretreated with YY-101, YDE-011, YDE-043 or reference compound; Xiidra® at various concentration (ranging from […] to 500 nM) for 2 h before stimulation. An equal volume of 0.5% DMSO was used as a vehicle control. Then, the cells were treated with LPS at 5 ug/ml, which was selected based on the pilot study. The supernatants from treated cells were harvested at 24 h and placed in a 96 well for Luminex cytokine & chemokine profiling using a Luminex 200 multiplex assay (Luminex; R&D system, USA).
(§2) The main study arm with triplicate wells per group in a 24-well plate: • 1. Blank • 2. PBMC: 0.5% DMSO • 3. PBMC+LPS (5 ug/ml) • 4. PBMC+YY-101 500 nM • 5. PBMC+YY-101 50 nM • 6. PBMC+YY-101 5 nM • 7. PBMC+YY-101 0.5 nM • 8. PBMC+LPS (5 ug/ml)+Xiidra® 500 nM • 9. PBMC+LPS (5 ug/ml)+Xiidra® 50 nM • 10. PBMC+LPS (5 ug/ml)+Xiidra® 5 nM • 11. PBMC+LPS (5 ug/ml)+Xiidra® 0.5 nM • 12. PBMC+LPS (5 ug/ml)+Xiidra® 0.05 nM • 13. PBMC+LPS (5 ug/ml)+Xiidra® 0.005 nM • 14. PBMC+LPS (5 ug/ml)+YY-101 500 nM • 15. PBMC+LPS (5 ug/ml)+YY-101 50 nM • 16. PBMC+LPS (5 ug/ml)+YY-101 5 nM • 17. PBMC+LPS (5 ug/ml)+YY-101 0.5 nM • 18. PBMC+LPS (5 ug/ml)+YY-101 0.05 nM • 19. PBMC+LPS (5 ug/ml)+YY-101 0.005 nM • 20. PBMC+LPS (5 ug/ml)+YDE-011 500 nM • 21. PBMC+LPS (5 ug/ml)+YDE-011 50 nM • 22. PBMC+LPS (5 ug/ml)+YDE-011 5 nM • 23. PBMC+LPS (5 ug/ml)+YDE-011 0.5 nM • 24. PBMC+LPS (5 ug/ml)+YDE-011 0.05 nM • 25. PBMC+LPS (5 ug/ml)+YDE-011 0.005 nM • 26. PBMC+LPS (5 ug/ml)+YDE-043 500 nM • 27. PBMC+LPS (5 ug/ml)+YDE-043 50 nM • 28. PBMC+LPS (5 ug/ml)+YDE-043 5 nM • 29. PBMC+LPS (5 ug/ml)+YDE-043 0.5 nM • 30. PBMC+LPS (5 ug/ml)+YDE-043 0.05 nM • 31. PBMC+LPS (5 ug/ml)+YDE-043 0.005 nM
(§3) Multiplex assay was used to measure 30 cytokines and chemokines. The 1:200 diluted cell supernatant and serial dilution of the standard were dispensed into a 96 well plate at 50 ul/well. Then, the pre-mixed cocktail of antibody-coated magnetic beads was dispensed at 50 ul/well and incubated at room temperature for 2 h in a horizontal orbital microplate shaker at 800±500 rpm. The beads were washed using a magnetic device to prevent loss. The biotin-antibody was dispensed in 50 ul of each well and incubated at room temperature for 1 h in a shaker at 800±500 rpm. After washing, streptavidin-PE was added at 50 ul/well and incubated at room temperature for 30 min in a shaker under the same conditions. Finally, after washing, wash buffer (100 ul/well) was added to the plate and incubated in a shaker for 2 min. The Luminex™ 200 setting were set according to the manufacturer's protocol. The data was calculated with a standard five-parameter logistic nonlinear regression analysis of the data (xPonent software 4.2, USA). Results were presented as concentration (ng/ml or pg/ml).

MMP-9 = experiment: Example 8 main study Luminex, LPS hPBMCs: MMP-9; assay type: cell-based, human; conditions: PBMC + LPS(5 ug/ml)
Description: as §1, §2, §3

[1] = PBMC + LPS(5 ug/ml) + test article 0.005 nM, Mean
[2] = PBMC + LPS(5 ug/ml) + test article 0.005 nM, single replicates
[3] = PBMC + LPS(5 ug/ml) + test article 0.05 nM, Mean
[4] = PBMC + LPS(5 ug/ml) + test article 0.05 nM, single replicates
[5] = PBMC + LPS(5 ug/ml) + test article 0.5 nM, Mean
[6] = PBMC + LPS(5 ug/ml) + test article 0.5 nM, single replicates
[7] = PBMC + LPS(5 ug/ml) + test article 5 nM, Mean
[8] = PBMC + LPS(5 ug/ml) + test article 5 nM, single replicates
[9] = PBMC + LPS(5 ug/ml) + test article 50 nM, Mean
[10] = PBMC + LPS(5 ug/ml) + test article 50 nM, single replicates
[11] = PBMC + LPS(5 ug/ml) + test article 500 nM, Mean
[12] = PBMC + LPS(5 ug/ml) + test article 500 nM, single replicates
[13] = test article 0.005 nM, single replicates
[14] = test article 0.05 nM, single replicates
[15] = test article 0.5 nM, single replicates
[16] = test article 5 nM, single replicates
[17] = test article 50 nM, single replicates
[18] = test article 500 nM, single replicates

`CC(C)C[C@H](NC(=O)CNC(=O)[C@H](CC(C)C)NC(=O)[C@H](CCC(N)=O)NC(=O)CNC(=O)[C@@H]1C[C@@H](O)CN1)C(=O)N[C@@H](C)C(=O)NCC(=O)N1CCC[C@H]1C(=O)N[C@@H](CCCCN)C(=O)O` [YDE-011] (H-[Hyp]GQLGLAGPK-OH) was tested, and the “CCL4/MIP-1 beta Concentration” value (CCL4/MIP-1 beta; [1]) was 20786.2 pg/mL, the “CCL4/MIP-1 beta MFI” value (CCL4/MIP-1 beta; [1]) was 12.3 and the “CCL4/MIP-1 beta Concentration” value (CCL4/MIP-1 beta; [2]) was 19701.2 pg/ml (2×) and 22956.0 pg/ml. The “CCL4/MIP-1 beta MFI” value (CCL4/MIP-1 beta; [2]) was 12.0 (2×) and 13.0, the “CCL4/MIP-1 beta Concentration” value (CCL4/MIP-1 beta; [3]) was 22956.0 pg/mL and the “CCL4/MIP-1 beta MFI” value (CCL4/MIP-1 beta; [3]) was 13.0. For the same molecule, the “CCL4/MIP-1 beta Concentration” value (CCL4/MIP-1 beta; [4]) was 22956.0 pg/mL, the “CCL4/MIP-1 beta MFI” value (CCL4/MIP-1 beta; [4]) was 13.0 and the “CCL4/MIP-1 beta Concentration” value (CCL4/MIP-1 beta; [5]) was 22956.0 pg/mL. The “CCL4/MIP-1 beta MFI” value (CCL4/MIP-1 beta; [5]) was 13.0, the “CCL4/MIP-1 beta Concentration” value (CCL4/MIP-1 beta; [6]) was 22956.0 pg/mL and the “CCL4/MIP-1 beta MFI” value (CCL4/MIP-1 beta; [6]) was 13.0. For the same molecule, the “CCL4/MIP-1 beta Concentration” value (CCL4/MIP-1 beta; [7]) was 16738.7 pg/mL, the “CCL4/MIP-1 beta MFI” value (CCL4/MIP-1 beta; [7]) was 11.3 and the “CCL4/MIP-1 beta Concentration” value (CCL4/MIP-1 beta; [8]) was 15257.5 pg/ml (2×) and 19701.2 pg/ml. For the same molecule, the “CCL4/MIP-1 beta MFI” value (CCL4/MIP-1 beta; [8]) was 11.0 (2×) and 12.0, the “CCL4/MIP-1 beta Concentration” value (CCL4/MIP-1 beta; [9]) was 23847.2 pg/mL and the “CCL4/MIP-1 beta MFI” value (CCL4/MIP-1 beta; [9]) was 13.3. For the same molecule, the “CCL4/MIP-1 beta Concentration” value (CCL4/MIP-1 beta; [10]) was 25629.7 pg/ml and 22956.0 pg/ml (2×), the “CCL4/MIP-1 beta MFI” value (CCL4/MIP-1 beta; [10]) was 14.0 and 13.0 (2×) and the “CCL4/MIP-1 beta Concentration” value (CCL4/MIP-1 beta; [11]) was 13759.1 pg/mL. For the same molecule, the “CCL4/MIP-1 beta MFI” value (CCL4/MIP-1 beta; [11]) was 11.3, the “CCL4/MIP-1 beta Concentration” value (CCL4/MIP-1 beta; [12]) was 19701.2 pg/ml (2×) and 1874.9 pg/ml and the “CCL4/MIP-1 beta MFI” value (CCL4/MIP-1 beta; [12]) was 12.0 (2×) and 10.0. For the same molecule, the “LPS-induced CCL-4 (in words)” value (CCL4/MIP-1 beta; at as low as 5 μM, LPS 5 ug/mL 24 hrs) was “significantly reduced”, the “Concentration (pg/ml), MMP-9” value (MMP-9; test article 0.005 nM, Mean) was 4251.7 pg/mL and the “MFI (Bead name: MMP-9)” value (MMP-9; test article 0.005 nM, Mean) was 29.8. For the same molecule, the “Concentration (pg/ml), MMP-9” value (MMP-9; [13]) was 4148.1 pg/mL and 4612.9 pg/mL and 3994.2 pg/mL, the “MFI (Bead name: MMP-9)” value (MMP-9; [13]) was 29.5 and 31.0 and 29.0 and the “Concentration (pg/ml), MMP-9” value (MMP-9; test article 0.05 nM, Mean) was 4509.4 pg/mL. For the same molecule, the “MFI (Bead name: MMP-9)” value (MMP-9; test article 0.05 nM, Mean) was 30.7, the “Concentration (pg/ml), MMP-9” value (MMP-9; [14]) was 4612.9 pg/ml (2×) and 4302.5 pg/ml and the “MFI (Bead name: MMP-9)” value (MMP-9; [14]) was 31.0 (2×) and 30.0. For the same molecule, the “Concentration (pg/ml), MMP-9” value (MMP-9; test article 0.5 nM, Mean) was 3435.2 pg/mL, the “MFI (Bead name: MMP-9)” value (MMP-9; test article 0.5 nM, Mean) was 27.2 and the “Concentration (pg/ml), MMP-9” value (MMP-9; [15]) was 3384.2 pg/mL and 3688.0 pg/mL and 3233.2 pg/mL. The “MFI (Bead name: MMP-9)” value (MMP-9; [15]) was 27.0 and 28.0 and 26.5, the “Concentration (pg/ml), MMP-9” value (MMP-9; test article 5 nM, Mean) was 3299.3 pg/mL and the “MFI (Bead name: MMP-9)” value (MMP-9; test article 5 nM, Mean) was 26.7. For the same molecule, the “Concentration (pg/ml), MMP-9” value (MMP-9; [16]) was 1907.3 pg/mL and 3688.0 pg/mL and 4302.5 pg/mL, the “MFI (Bead name: MMP-9)” value (MMP-9; [16]) was 22.0 and 28.0 and 30.0 and the “Concentration (pg/ml), MMP-9” value (MMP-9; test article 50 nM, Mean) was 2555.4 pg/mL. For the same molecule, the “MFI (Bead name: MMP-9)” value (MMP-9; test article 50 nM, Mean) was 24.2, the “Concentration (pg/ml), MMP-9” value (MMP-9; [17]) was 2636.1 pg/mL and 3688.0 pg/mL and 1342.1 pg/mL and the “MFI (Bead name: MMP-9)” value (MMP-9; [17]) was 24.5 and 28.0 and 20.0. For the same molecule, the “Concentration (pg/ml), MMP-9” value (MMP-9; test article 500 nM, Mean) was 2776.4 pg/mL, the “MFI (Bead name: MMP-9)” value (MMP-9; test article 500 nM, Mean) was 24.8 and the “Concentration (pg/ml), MMP-9” value (MMP-9; [18]) was 4612.9 pg/mL and 931.9 pg/mL and 2784.3 pg/mL. For the same molecule, the “MFI (Bead name: MMP-9)” value (MMP-9; [18]) was 31.0 and 18.5 and 25.0.
